Results on three molecules are retold here after patent publication US20180354962A1, “[{[2,3-Dihydro-1H-inden-1-yl]amino}-2H,3H-furo[3,2-b]pyridin-3-yl]acetic acids, pharmaceutical compositions and uses thereof” (Boehringer Ingelheim International GmbH, priority 2015, published 2018).

Converted amounts (≈) assume the structure as drawn. A value given as a limit tells only on which side of the number the result lay.

The nature of data set [1]: Chemical stability (degradation kinetics) in acidic aqueous media, HPLC. It counts as physicochemical. The settings on record: acetonitrile/0.1 M aqueous HCl (2:3), pH ca. 1.2, 37° C. How it is done:
Degradation kinetics is used to simulate chemical stability of compounds in the acidic part of the gastro intestinal tract. […] Their application as medical drugs to treat human diseases is therefore less restricted and troublesome. The chemical stability of the compounds of the invention at pH value of ca. 1.2 is determined as follows: Compound is dissolved in an HPLC vial either in a mixture of acetonitrile/0.1 M aqueous HCl (2:3; pH ca. 1.2) or in a mixture of acetonitrile/McIlvaine buffer pH 7.4 (2:3) to get a concentration of approximately 0.25 mg/ml. The vial was then transferred into an HPLC autosampler system and maintained at a temperature of 37° C. A first sample is taken and injected immediately into a standard HPLC system with a UV DAD detector. Further samples are injected after 2, 4, 6, 8 and 10 hours. Degradation of the compound is measured by determining the recovery rate of compound [%] for each injection using an HPLC standard gradient method. Therefore the peak area of the main peak for the first injection (AUt0) is determined and set as 100%. Peak area of the main peak is determined also for the further injections (AUtn, n=2, 4, 6, 8, 10) and expressed as fraction of […][%].

A short description of data set [2]: Aqueous solubility from DMSO stock, LC-UV. It counts as physicochemical. To be noted: aqueous buffer, kinetic from dmso stock; buffer pH 2.2, 24 h shaking, 2.5% DMSO. How it is done: The aqueous solubility of the compounds of the invention is determined by comparing the amount dissolved in buffer to the amount in an acetonitrile/water (1/1) solution. Starting from a 10 mM DMSO stock solution aliquots are diluted with acetonitrile/water (1/1) or buffer, respectively. After 24 h of shaking, the solutions are filtrated and analyzed by LC-UV. The amount dissolved in buffer is compared to the amount in the acetonitrile solution. Solubility is usually being measured from 0.001 to 0.125 mg/mL at a DMSO concentration of 2.5%. If more than 90% of the compound is dissolved in buffer, the value is marked with “>”.

Data set [3] concerns the target human GPR40 receptor (Homo sapiens, UniProt O14842). The data set can be described thus: IP1 accumulation measurements using the IPOne assay system. Type of data set: cell-based. The settings on record: 1321N1 cells stably expressing human GPR40; 1 h stimulation at 37° C. On the procedure:
IP1 accumulation measurements using the IPOne assay system—1321N1 cells stably expressing human GPR40 receptor (Euroscreen, Belgium) are seeded 24 h before the assay in white 384-well plates in culture medium containing 10% FCS, 1% Na-Pyruvate and 400 μg/mL G418. IP1 is assayed according to the manufacturer's description (Cisbio Bioassays, France). In brief, the assay is started by substitution of the culture medium by stimulation buffer (Hepes 10 mM, CaCl2 1 mM, MgCl2 0.5 mM, KCl 4.2 mM, NaCl 146 mM, glucose 5.5 mM and LiCl 50 mM, pH 7.4). Cells are stimulated for 1 h at 37° C., 5% CO2 by addition of the compounds that are diluted in stimulation buffer containing LiCl. Assays are stopped by adding HTRF-conjugates (IP1-d2 and Anti-IP1 cryptate Tb) and lysis buffer, provided by the manufacturer. After an incubation time of 1 h at room temperature plates are measured using an EnVision™, Perkin Elmer. The obtained fluorescence ratios at 665/615 […] are then used to calculate the pEC50 values using Assay Explorer 3.3 Software (Accelrys, Inc.) by interpolation using an IP1 reference curve and subsequent sigmoidal curve fitting allowing for a variable hill slope.

The target of data set [4] is T1, cytochrome P450 2C8-isoenzyme (Homo sapiens, UniProt P10632).
T1 construct: is assayed at 37° C. with human liver microsomes; from tissue; host or cells: human liver microsomes
T1 sequence (P10632 1-490): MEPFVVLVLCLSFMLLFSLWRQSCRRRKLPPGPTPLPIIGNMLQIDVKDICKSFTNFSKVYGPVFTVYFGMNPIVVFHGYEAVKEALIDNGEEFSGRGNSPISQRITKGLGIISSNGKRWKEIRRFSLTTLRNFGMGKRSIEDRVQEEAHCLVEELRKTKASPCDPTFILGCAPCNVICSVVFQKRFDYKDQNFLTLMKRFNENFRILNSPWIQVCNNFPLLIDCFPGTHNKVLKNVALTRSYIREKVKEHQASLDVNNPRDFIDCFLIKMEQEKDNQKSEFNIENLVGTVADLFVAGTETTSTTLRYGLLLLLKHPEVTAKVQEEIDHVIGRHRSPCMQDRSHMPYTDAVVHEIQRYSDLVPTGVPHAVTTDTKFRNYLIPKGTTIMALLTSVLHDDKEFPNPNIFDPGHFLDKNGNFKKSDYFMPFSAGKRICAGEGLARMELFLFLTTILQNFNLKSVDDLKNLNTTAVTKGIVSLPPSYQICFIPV
The data set is described as follows: Inhibition of CYP-2C8 (amodiaquine deethylation, human liver microsomes). It counts as in vitro ADME. The settings on record: human liver microsomes 0.05 mg/mL, amodiaquine 1 μM, 37° C. On the procedure: All assays are carried out on a robotic system in 96 well plates. The final incubation volume contains TRIS buffer (0.1 M), MgCl2 (5 mM), human liver microsomes (0.05 mg/mL), amodiaquine (1 μM) and the test compound at five different concentrations or no compound (high control) in duplicate (e.g. highest concentration 10-50 μM with subsequent serial 1:4 dilutions). Following a short preincubation period, reactions are started with the cofactor (NADPH, 1 mM) and stopped by cooling the incubation down to 8° C. and subsequently by addition of one volume of acetonitrile. An internal standard solution—the stable isotope d5-desethylamodiaquine—is added after quenching of incubations. Peak area analyte (=metabolite formed) and internal standard is determined by LC-MS/MS. The resulting peak area ratio analyte to internal standard in these incubations is compared to a control activity containing no test compound. Within each of the assay runs, the IC50 of a positive control inhibitor (Montelukast) is determined. Experimental IC50 values are calculated by least square regression according to the following equation: % control activity=(100% control activity/(1+(I/IC50)S))−B with I=inhibitor concentration; S=slope factor; B=background activity (lower plateau of the inhibition curve) If the inhibition of the reaction is already >50% at the lowest concentration of the test compound, the IC50 is assigned “<lowest concentration tested” (usually <0.4 μM). If the inhibition of the reaction is still <50% at the highest concentration of the test compound, the IC50 is assigned “>highest concentration tested” (usually >50 μM).
(Liver microsomes are vesicles of endoplasmic reticulum, rich in cytochrome P450 enzymes.)

For data set [5], the target named is T2, cytochrome P450 2C9-isoenzyme (Homo sapiens, UniProt P11712).
T2 construct: is assayed at 37° C. with human liver microsomes; from tissue; host or cells: human liver microsomes
T2 sequence (P11712 whole entry): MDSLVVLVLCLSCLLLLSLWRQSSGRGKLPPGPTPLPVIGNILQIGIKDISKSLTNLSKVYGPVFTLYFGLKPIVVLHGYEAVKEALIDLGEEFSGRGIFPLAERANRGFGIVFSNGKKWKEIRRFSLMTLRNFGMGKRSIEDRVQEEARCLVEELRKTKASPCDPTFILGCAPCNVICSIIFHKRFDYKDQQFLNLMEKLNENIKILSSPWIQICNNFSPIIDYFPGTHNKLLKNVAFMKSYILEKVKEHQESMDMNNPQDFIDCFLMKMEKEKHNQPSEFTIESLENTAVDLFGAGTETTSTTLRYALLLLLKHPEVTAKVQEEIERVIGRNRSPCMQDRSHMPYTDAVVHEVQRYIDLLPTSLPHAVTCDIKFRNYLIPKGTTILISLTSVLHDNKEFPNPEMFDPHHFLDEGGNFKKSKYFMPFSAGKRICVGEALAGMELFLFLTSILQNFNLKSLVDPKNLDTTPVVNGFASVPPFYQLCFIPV
The data set is described as follows: Inhibition of CYP-2C9 (diclofenac hydroxylation, human liver microsomes). It counts as in vitro ADME. To be noted: human liver microsomes 0.1 mg/mL, diclofenac 10 μM, 37° C. How it is done: (§1) All assays are carried out on a robotic system in 96 well plates. The final incubation volume contains TRIS buffer (0.1 M), MgCl2 (5 mM), human liver microsomes (0.1 mg/mL), diclofenac (10 μM) and the test compound at five different concentrations or no compound (high control) in duplicate (e.g. highest concentration 10-50 μM with subsequent serial 1:4 dilutions). Following a short preincubation period, reactions are started with the cofactor (NADPH, 1 mM) and stopped by cooling the incubation down to 8° C. and subsequently by addition of one volume of acetonitrile. An internal standard solution—the stable isotope 13C6-hydroxydiclofenac—is added after quenching of incubations. Peak area analyte (=metabolite formed) and internal standard is determined by LC-MS/MS. The resulting peak area ratio analyte to internal standard in these incubations is compared to a control activity containing no test compound. Within each of the assay runs, the IC50 of a positive control inhibitor (sulfaphenazole) is determined. Experimental IC50 values are calculated by least square regression according to the following equation: % control activity=(100% control activity/(1+(I/IC50)S)))−B with I=inhibitor concentration S=slope factor B=background activity (lower plateau of the inhibition curve) If the inhibition of the reaction is already >50% at the lowest concentration of the test compound, the IC50 is assigned “<lowest concentration tested” (usually <0.4 μM). If the inhibition of the reaction is still <50% at the highest concentration of the test compound, the IC50 is assigned “>highest concentration tested” (usually >50 μM).

Data set [6] has as its target T3, CYP2C9 (Homo sapiens, UniProt P11712).
T3 construct: from tissue; host or cells: human liver microsomes
The description is as above. To be noted: probe diclofenac (10 μM), hydroxylation, human liver microsomes 0.1 mg/mL, 37° C. It counts as in vitro ADME. How it is done:
as §1

Chain of human GPR40 receptor (O14842 whole entry): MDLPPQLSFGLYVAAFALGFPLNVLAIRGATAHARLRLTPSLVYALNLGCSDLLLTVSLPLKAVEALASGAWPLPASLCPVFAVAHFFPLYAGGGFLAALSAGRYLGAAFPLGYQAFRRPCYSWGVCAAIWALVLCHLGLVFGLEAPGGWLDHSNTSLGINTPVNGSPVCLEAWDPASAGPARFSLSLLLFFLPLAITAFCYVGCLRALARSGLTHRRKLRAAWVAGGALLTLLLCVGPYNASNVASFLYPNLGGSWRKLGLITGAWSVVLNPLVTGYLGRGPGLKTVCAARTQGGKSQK
T3 sequence (P11712 whole entry): as the sequence (P11712 whole entry) above

The solubility is the concentration that dissolves in the medium under given conditions. Higher therefore signals a readily soluble substance. A word on the EC50: it is the concentration needed to bring the measured effect to its halfway point. Broadly, the IC50 is the concentration needed to halve the response being measured. Lower therefore signals greater potency. `Cc1cc(-c2nnn(C)n2)cc(C)c1-c1cccc2c1CC[C@H]2Nc1cnc2c(c1)OC[C@H]2CC(=O)O` [Example 3, 2-[(3S)-6-{[(1R)-4-[2,6-Dimethyl-4-(2-methyl-2H-1,2,3,4-tetrazol-5-yl)phenyl]-2,3-dihydro-1H-inden-1-yl]amino}-2H,3H-furo[3,2-b]pyridin-3-yl]acetic acid]: the “Amount of degradation after 2 h” value in data set [1] is on record as less than 0.5%. In addition, the solubility at 24 h in data set [2] is 6 µg/mL (≈ 12.1 µM). Moreover, the EC50 in data set [3] worked out at 0.042 µM. Besides, the IC50 in data set [4] was 29 µM; in data set [5], more than 50 µM.
`CC(C)c1ccccc1-c1cccc2c1CC[C@H]2Nc1cnc2c(c1)OCC2CC(=O)O` (stereo partly drawn) [Example 129, 2-(6-{[(1R)-4-[2-(Propan-2-yl)phenyl]-2,3-dihydro-1H-inden-1-yl]amino}-2H,3H-furo[3,2-b]pyridin-3-yl)acetic acid] registered a solubility at 24 h in data set [2] of 4 µg/mL (≈ 9.33 µM). Also, the EC50 in data set [3] was 0.184 µM. Also, the IC50 is 12 µM in data set [4] and 50 µM in data set [6].
As to `Cc1cc(-c2nnn(C)n2)cc(C)c1-c1ccc(F)c2c1CC[C@H]2Nc1cnc2c(c1)OC[C@H]2CC(=O)O` [Example 5, 2-[(3S)-6-{[(1R)-4-[2,6-Dimethyl-4-(2-methyl-2H-1,2,3,4-tetrazol-5-yl)phenyl]-7-fluoro-2,3-dihydro-1H-inden-1-yl]amino}-2H,3H-furo[3,2-b]pyridin-3-yl]acetic acid], in data set [1], the “Amount of degradation after 2 h” value is listed as 0.4%. Further, the solubility at 24 h in data set [2] came out at 7 µg/mL (≈ 13.6 µM). In data set [3], this molecule yielded an EC50 of 0.026 µM. The IC50 is 22 µM in data set [4] and 48 µM in data set [5].
